In US20170152241A9, “BICYCLIC DERIVATIVE CONTAINING PYRIMIDINE RING, AND PREPARATION METHOD THEREFOR” (YUHAN CORPORATION, priority 2013, published 2017) one finds EC50 data, which are given here for one molecule.

Counter-ions that a name gives are not always drawn.

One may read the EC50 as the concentration that produces a half-maximal response. A high value points to weaker potency.

The target of the assay is T1, human 5-HT4(a) (Homo sapiens, UniProt Q13639).
T1 construct: host or cells: GeneBlAzer HTR4-CRE-bla CHO-K1 cells
Description: Evaluation of agonistic activity in CHO-K1 cells expressing human 5-HT4(a) (GeneBlAzer HTR4-CRE-bla, beta-lactamase reporter). Format: cell-based. The conditions noted are these: 5 hours incubation, 8 concentrations. Here is the method:
Evaluation of Agonistic Activity in CHO-K1 Cells Expressing Human 5-HT4(a)
As CHO-K1 cells stably expressing human 5-HT4(a), we used the GeneBlAzer HTR4-CRE-bla CHO-K1 cells (Invitrogen corp.). The cells were cultured in DMEM medium supplemented with 10% bovine fetal serum (FBS), 25 mM HEPES (pH 7.4), 600 μg/ml Hygromycin B, 0.1 mM non-essential amino acids, 100 unit/ml penicillin and 100 μg/ml streptomycin under the condition of 37° C. and 5% CO2. Subcultures were performed three times per a week, each being at less than 80% confluence. At the previous day before treating test compounds, the cells were collected by using 0.5% trypsin/EDTA, and then diluted with a DMEM supplemented with 1% FBS, 25 mM HEPES and 0.1 mM non-essential amino acids into 3.125×10^5 cells/ml. 32 μl of the diluted cells were added into 384-well plate (10,000 cells/well) and then incubated overnight. The compounds to be used as a test material and a control drug were prepared as 500× of the various final treating concentrations of the drug with 100% DMSO, and then treated to the medium after diluting them to 100-folds to be 1% of the final DMSO concentration equally. After culturing overnight, 8 μl of the medium having 1% of DMSO was added into the cell-free control well and the non-stimulating control well, respectively. 8 μl of the control drug or the test material (which had been prepared by diluting 100-folds with the medium as mentioned in the above) having 1% of DMSO, were added to the respective remaining wells. After culturing in an incubator for 5 hours, the wells of the 384-plate were treated with the substrate solution (8 μl/well) prepared according to the vendor's instruction (i.e. Invitrogen's instruction), and then incubated in the dark room for additional 2 hours. Agonistic activities on 5-HT4 receptor were evaluated, on the basis of fluorescent values of the cleavage-products, which is generated cAMP-concentration dependently per equal time by beta-lactamase. After exciting to 410 nm of wavelength by using Genios Pro Fluorescence Detector, we measured the fluorescence values at two emission wavelengths (first wavelength: 465 nm, second wavelength: 535 nm). Data were analyzed on the basis of the ratio of fluorescence intensities of each well at the respective wavelengths. For all plates, the concentrations-response curve (1 pM-100 nM) of the control drug (Tegaserod) was included. Each EC50 values of the test compounds were calculated by non-linear regression analysis using GraphPad Prism program, based on the concentration-reactivity values according to 8-different concentrations of the test compounds.

T1 sequence (Q13639 1-387 isoform Q13639-2): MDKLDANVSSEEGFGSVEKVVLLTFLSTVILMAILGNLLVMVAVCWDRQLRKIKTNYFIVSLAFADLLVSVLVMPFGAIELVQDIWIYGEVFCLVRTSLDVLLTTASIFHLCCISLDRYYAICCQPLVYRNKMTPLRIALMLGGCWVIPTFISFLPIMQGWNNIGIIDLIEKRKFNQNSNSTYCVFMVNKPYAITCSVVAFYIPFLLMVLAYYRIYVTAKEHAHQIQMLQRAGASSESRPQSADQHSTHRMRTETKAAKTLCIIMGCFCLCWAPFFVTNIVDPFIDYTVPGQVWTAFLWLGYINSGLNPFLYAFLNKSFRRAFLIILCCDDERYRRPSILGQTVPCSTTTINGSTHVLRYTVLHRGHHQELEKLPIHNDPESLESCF

On to `CNC(=O)[C@@H]1CCCN(c2nc(Nc3ccc(N)c([N+](=O)[O-])c3)nc3c2CCC3)C1` [Example 224, (R)-1-[2-{(4-amino-3-nitrophenyl)amino}-6,7-dihydro-5H-cyclopenta[d]pyrimidin-4-yl]-N-methylpiperidine-3-carboxamide hydrochloride], for which the half-maximal effective concentration (EC50) was found to be 8.7 pM.
